Laboratory results as given in publication PMC9898036, “VIP152 is a selective CDK9 inhibitor with pre-clinical in vitro and in vivo efficacy in chronic lymphocytic leukemia” (Leukemia, 2022).

How the values were obtained:
Format in all cases: binding
SNRK = SNRK (Homo sapiens, UniProt Q9NRH2); assay: KINOMEscan: SNRK; conditions: 100 nM, read-out: Percent Control
MAP4K4 = MAP4K4 (Homo sapiens, UniProt O95819); assay: KINOMEscan: MAP4K4; conditions: 1000 nM, read-out: Percent Control
FGR = FGR (Homo sapiens, UniProt P09769); assay: KINOMEscan: FGR; conditions: 1000 nM, read-out: Percent Control
CHEK2 = CHEK2 (Homo sapiens, UniProt O96017); assay: KINOMEscan: CHEK2; conditions: 1000 nM, read-out: Percent Control
ERK4 = ERK4 (Homo sapiens, UniProt P31152); assay: KINOMEscan: ERK4; conditions: 1000 nM, read-out: Percent Control
Chain of ERK4 (P31152 whole entry): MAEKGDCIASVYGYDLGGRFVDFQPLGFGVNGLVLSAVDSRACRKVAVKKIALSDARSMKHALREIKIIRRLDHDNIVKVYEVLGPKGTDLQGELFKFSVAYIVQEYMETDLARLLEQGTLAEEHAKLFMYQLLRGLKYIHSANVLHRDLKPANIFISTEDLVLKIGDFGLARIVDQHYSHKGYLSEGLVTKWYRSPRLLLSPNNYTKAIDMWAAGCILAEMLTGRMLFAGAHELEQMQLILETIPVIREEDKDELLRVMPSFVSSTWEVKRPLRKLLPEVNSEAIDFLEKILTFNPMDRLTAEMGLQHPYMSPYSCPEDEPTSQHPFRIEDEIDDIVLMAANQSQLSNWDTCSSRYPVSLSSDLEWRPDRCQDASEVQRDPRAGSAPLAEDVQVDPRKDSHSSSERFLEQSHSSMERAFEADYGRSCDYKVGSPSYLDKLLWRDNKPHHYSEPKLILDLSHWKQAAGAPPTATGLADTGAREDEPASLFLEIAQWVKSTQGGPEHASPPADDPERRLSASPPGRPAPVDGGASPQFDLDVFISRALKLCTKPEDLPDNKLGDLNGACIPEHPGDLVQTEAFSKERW

CAMK1 = CAMK1 (Homo sapiens, UniProt Q14012); assay: KINOMEscan: CAMK1; conditions: 1000 nM, read-out: Percent Control
Chain of CAMK1 (Q14012 whole entry): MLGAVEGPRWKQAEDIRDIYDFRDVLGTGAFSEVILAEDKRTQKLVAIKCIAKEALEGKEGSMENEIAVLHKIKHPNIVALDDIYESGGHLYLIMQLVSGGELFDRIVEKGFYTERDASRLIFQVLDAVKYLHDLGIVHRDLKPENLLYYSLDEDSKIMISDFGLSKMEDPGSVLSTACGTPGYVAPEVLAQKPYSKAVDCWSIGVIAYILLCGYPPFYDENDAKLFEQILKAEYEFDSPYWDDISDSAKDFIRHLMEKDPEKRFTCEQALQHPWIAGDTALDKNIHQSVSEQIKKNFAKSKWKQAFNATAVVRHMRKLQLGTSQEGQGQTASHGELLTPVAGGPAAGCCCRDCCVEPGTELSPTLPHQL

[1] = biological target: EGFR(L747-E749del, A750P) (Homo sapiens, UniProt P00533, A750P/DEL747-749); assay: KINOMEscan: EGFR(L747-E749del, A750P); conditions: 1000 nM, read-out: Percent Control
MST1 = MST1 (Homo sapiens, UniProt Q13043); assay: KINOMEscan: MST1; conditions: 1000 nM, read-out: Percent Control
BRAF = BRAF (Homo sapiens, UniProt P15056); assay: KINOMEscan: BRAF; conditions: 1000 nM, read-out: Percent Control
MAP3K3 = MAP3K3 (Homo sapiens, UniProt Q99759); assay: KINOMEscan: MAP3K3; conditions: 1000 nM, read-out: Percent Control
PIKFYVE = PIKFYVE (Homo sapiens, UniProt Q9Y2I7); assay: KINOMEscan: PIKFYVE
Chain of PIKFYVE (Q9Y2I7 whole entry): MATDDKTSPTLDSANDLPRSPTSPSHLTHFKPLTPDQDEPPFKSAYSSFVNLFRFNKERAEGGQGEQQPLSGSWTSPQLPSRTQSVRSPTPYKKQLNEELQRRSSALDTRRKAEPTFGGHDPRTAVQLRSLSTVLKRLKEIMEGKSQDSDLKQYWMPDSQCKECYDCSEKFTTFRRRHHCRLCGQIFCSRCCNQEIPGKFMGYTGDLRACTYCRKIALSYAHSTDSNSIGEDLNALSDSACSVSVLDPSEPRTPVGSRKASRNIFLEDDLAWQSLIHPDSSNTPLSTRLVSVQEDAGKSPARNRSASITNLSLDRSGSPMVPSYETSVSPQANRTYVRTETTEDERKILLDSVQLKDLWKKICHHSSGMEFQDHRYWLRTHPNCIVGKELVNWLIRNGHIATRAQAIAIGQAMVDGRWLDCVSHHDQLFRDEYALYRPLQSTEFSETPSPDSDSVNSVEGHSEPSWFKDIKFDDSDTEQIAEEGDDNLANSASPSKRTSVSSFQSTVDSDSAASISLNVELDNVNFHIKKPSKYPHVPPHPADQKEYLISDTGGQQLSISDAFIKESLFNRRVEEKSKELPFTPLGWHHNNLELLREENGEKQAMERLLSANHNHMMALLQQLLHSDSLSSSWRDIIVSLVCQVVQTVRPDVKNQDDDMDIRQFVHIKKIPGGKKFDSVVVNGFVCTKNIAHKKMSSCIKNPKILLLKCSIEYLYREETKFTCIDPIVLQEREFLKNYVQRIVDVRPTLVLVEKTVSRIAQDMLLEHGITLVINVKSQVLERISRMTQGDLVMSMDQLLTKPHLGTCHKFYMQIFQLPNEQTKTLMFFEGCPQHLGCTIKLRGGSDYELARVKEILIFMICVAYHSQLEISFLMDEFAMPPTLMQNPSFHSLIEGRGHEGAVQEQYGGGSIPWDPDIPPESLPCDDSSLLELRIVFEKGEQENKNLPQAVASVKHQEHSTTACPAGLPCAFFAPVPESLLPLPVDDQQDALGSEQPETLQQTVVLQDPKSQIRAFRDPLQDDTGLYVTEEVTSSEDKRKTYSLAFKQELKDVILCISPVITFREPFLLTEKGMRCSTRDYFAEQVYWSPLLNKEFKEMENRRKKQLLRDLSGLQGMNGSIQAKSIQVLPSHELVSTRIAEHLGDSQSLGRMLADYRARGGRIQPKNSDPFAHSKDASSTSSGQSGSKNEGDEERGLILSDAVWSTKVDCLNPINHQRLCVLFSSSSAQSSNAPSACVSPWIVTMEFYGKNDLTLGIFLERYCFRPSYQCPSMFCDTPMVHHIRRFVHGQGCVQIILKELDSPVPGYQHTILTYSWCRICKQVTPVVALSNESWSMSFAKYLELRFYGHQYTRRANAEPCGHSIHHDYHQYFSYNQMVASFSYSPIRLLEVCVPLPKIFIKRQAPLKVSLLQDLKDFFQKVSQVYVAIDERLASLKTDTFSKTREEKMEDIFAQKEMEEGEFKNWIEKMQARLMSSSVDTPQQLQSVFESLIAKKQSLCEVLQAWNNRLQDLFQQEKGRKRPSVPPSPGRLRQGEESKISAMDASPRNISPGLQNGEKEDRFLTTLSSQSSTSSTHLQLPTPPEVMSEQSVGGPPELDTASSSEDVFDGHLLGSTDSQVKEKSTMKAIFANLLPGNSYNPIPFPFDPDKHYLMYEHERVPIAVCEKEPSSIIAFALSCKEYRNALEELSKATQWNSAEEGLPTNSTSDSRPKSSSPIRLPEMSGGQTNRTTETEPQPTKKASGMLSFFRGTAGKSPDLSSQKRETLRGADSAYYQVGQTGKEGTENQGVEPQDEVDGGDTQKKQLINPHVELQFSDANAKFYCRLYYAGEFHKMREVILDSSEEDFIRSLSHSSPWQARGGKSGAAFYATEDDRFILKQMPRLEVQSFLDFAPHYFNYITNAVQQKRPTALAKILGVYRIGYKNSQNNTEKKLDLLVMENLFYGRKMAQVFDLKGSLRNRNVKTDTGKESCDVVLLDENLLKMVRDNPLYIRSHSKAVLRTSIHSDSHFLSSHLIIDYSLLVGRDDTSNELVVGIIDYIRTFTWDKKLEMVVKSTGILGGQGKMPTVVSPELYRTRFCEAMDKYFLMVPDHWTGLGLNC
Method: The structure and synthesis of VIP152 were recently described by Lücking et al.. (Fig. 1A); however, the selectivity of the molecule in cellular systems has yet to be explored. […] We also performed this experiment at 1000 nM, where CDK9 was inhibited at 99%. […] We found a strong concordance between our data and those of Lücking when comparing the most inhibited kinases. Potential off-target effects of VIP152 were next tested in vitro at a concentration of 10 µM for off-target activity against a broad range of receptors, transporters, ion channels, and enzymes (n = 138) using the Eurofins Diversity Panel.
Kinomescan Kinase Profiling Assay
Kinomescan Assay was performed at DiscoverRX and described in Fabian, et al. 2005, Nat.
Biotechnol. In brief, kinases were produced and subsequently tagged with DNA for qPCR detection.
Streptavidin-coated magnetic beads were bound to biotinylated kinase ligands to serve as a solid support.
VIP152 was dissolved in DMSO and tested across a 10 serial threefold dilution set and compared to a test compound and a DMSO control. Kinases which were inhibited by VIP152 would not be bound to the solid-support resulting in decreased substrate for the qPCR reaction. Kinome map was produced via TreeSpot Analysis from DiscoverRX. […]
NanoBRETTM Target Engagement Assay Protocol […]
The cell and lipid:DNA […]
complex was dispensed into a sterile tissue culture dish and incubated for 22-24 hours. Test compounds were then delivered from the compound source plate to the wells of a 384-well white NBS plate by Echo 550. Cells with NanoBRET Tracer Reagent were then prepared by first removing media from dish of transfected HEK293 cells via aspiration, trypsinization, and allowing cells to dissociate from the dish. Trypsin was neutralized using medium containing serum and centrifuged at 200g for 5 minutes to pellet the cells. Cell density was then adjusted to 2E05 cells/mL in Opti-MEM without phenol red. Complete 20X NanoBRET Tracer Reagent was prepared with Tracer Dilution Buffer and dispensed at a ratio of 1:20 Reagent to cells in the tube. The cell

SIK = SIK (Homo sapiens, UniProt P57059); assay: KINOMEscan: SIK; conditions: 100 nM, read-out: Percent Control
ADCK3 = ADCK3 (Homo sapiens, UniProt Q8NI60); assay: KINOMEscan: ADCK3; conditions: 1000 nM, read-out: Percent Control
KIT(V559D) = KIT(V559D) (Homo sapiens, UniProt P10721, V559D); assay: KINOMEscan: KIT(V559D); conditions: 1000 nM, read-out: Percent Control
Muscarinic M3 = Muscarinic M3 (Homo sapiens, UniProt P20309); assay: Eurofins Diversity Panel; conditions: hum, Conc. 10 μM
Chain of Muscarinic M3 (P20309 whole entry): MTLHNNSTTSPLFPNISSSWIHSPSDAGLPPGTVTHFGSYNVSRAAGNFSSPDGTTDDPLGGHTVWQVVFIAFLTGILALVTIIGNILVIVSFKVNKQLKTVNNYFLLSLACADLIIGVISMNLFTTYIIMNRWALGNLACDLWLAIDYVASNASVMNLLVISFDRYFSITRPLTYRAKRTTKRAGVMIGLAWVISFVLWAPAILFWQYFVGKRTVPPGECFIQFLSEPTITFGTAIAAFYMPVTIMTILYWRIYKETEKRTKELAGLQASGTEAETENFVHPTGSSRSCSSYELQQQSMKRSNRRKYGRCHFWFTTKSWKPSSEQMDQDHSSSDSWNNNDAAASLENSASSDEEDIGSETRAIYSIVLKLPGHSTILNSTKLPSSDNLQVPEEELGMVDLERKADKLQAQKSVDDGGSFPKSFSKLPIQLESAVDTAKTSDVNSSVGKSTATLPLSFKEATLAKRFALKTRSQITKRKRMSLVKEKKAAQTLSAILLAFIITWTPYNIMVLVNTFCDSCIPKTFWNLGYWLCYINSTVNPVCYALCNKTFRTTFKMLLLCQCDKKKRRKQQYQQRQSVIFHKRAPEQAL

CSNK2A2 = CSNK2A2 (Homo sapiens, UniProt P19784); assay: KINOMEscan: CSNK2A2; conditions: 1000 nM, read-out: Percent Control
Phorbol Ester = assay: Eurofins Diversity Panel; conditions: mouse, Conc. 10 μM
IKK-alpha = IKK-alpha (Homo sapiens, UniProt O15111); assay: KINOMEscan: IKK-alpha; conditions: 1000 nM, read-out: Percent Control
[2] = tested on: Calcium Channel L-Type, Benzothiazepine; assay: Eurofins Diversity Panel; conditions: rat, Conc. 10 μM
DCAMKL3 = DCAMKL3 (Homo sapiens, UniProt Q9C098); assay: KINOMEscan: DCAMKL3; conditions: 1000 nM, read-out: Percent Control
EGFR(S752-I759del) = EGFR(S752-I759del) (Homo sapiens, UniProt P00533, DEL752-759); assay: KINOMEscan: EGFR(S752-I759del); conditions: 1000 nM, read-out: Percent Control
Chain of EGFR(S752-I759del) (P00533 with tags, fused parts or gaps DEL752-759 limits assumed): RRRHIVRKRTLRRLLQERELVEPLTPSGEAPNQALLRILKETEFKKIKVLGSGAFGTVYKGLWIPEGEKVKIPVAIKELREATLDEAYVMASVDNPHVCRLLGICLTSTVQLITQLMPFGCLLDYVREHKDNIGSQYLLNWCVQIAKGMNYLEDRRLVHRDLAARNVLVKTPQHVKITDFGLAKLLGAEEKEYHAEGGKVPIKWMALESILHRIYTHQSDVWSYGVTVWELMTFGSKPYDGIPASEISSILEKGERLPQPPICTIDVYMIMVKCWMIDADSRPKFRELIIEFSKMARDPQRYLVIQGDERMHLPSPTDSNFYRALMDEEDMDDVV

LATS1 = LATS1 (Homo sapiens, UniProt O95835); assay: KINOMEscan: LATS1; conditions: 1000 nM, read-out: Percent Control
ERBB4 = ERBB4 (Homo sapiens, UniProt Q15303); assay: KINOMEscan: ERBB4; conditions: 1000 nM, read-out: Percent Control
TAOK2 = TAOK2 (Homo sapiens, UniProt Q9UL54); assay: KINOMEscan: TAOK2; conditions: 100 nM, read-out: Percent Control
MAP3K15 = MAP3K15 (Homo sapiens, UniProt Q6ZN16); assay: KINOMEscan: MAP3K15; conditions: 1000 nM, read-out: Percent Control
AURKB = AURKB (Homo sapiens, UniProt Q96GD4); assay: KINOMEscan: AURKB; conditions: 1000 nM, read-out: Percent Control
ALK(L1196M) = ALK(L1196M) (Homo sapiens, UniProt Q9UM73, L1196M); assay: KINOMEscan: ALK(L1196M); conditions: 1000 nM, read-out: Percent Control
TEC = TEC (Homo sapiens, UniProt P42680); assay: KINOMEscan: TEC; conditions: 100 nM, read-out: Percent Control
EPHA8 = EPHA8 (Homo sapiens, UniProt P29322); assay: KINOMEscan: EPHA8; conditions: 1000 nM, read-out: Percent Control
Chain of EPHA8 (P29322 28-1005): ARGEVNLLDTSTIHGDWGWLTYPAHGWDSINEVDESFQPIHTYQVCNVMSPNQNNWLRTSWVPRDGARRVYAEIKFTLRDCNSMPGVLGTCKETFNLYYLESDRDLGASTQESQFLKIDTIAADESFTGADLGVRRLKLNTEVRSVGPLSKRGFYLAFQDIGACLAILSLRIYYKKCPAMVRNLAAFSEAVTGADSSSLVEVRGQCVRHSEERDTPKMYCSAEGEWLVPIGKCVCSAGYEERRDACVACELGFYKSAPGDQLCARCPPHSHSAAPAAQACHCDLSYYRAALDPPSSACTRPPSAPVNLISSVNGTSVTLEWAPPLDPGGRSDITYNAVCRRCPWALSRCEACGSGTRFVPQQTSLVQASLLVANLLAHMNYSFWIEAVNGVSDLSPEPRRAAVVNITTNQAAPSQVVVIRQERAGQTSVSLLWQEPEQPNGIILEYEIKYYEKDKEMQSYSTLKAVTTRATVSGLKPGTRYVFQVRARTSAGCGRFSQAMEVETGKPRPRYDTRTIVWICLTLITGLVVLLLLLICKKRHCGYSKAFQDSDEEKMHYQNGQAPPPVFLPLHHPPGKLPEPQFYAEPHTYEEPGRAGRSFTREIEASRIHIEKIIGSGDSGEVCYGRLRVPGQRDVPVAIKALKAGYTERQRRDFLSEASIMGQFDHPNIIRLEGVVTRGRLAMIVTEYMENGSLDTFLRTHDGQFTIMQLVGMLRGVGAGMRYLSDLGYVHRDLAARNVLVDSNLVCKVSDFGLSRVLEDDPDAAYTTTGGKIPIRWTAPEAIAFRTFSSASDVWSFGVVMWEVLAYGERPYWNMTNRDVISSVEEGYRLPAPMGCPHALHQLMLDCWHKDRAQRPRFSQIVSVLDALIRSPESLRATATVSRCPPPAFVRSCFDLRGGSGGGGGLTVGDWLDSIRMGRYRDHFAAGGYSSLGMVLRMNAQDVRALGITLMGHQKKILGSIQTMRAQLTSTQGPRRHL

Compound: COc1cc(F)ccc1-c1cc(Nc2cc(CS(C)(=N)=O)ccn2)ncc1F (stereo not shown) [VIP152]
- remaining binding at 0.1 µM (SNRK): 100%
- remaining binding at 1 µM (MAP4K4): 44%
- remaining binding at 1 µM (FGR): 66%
- remaining binding at 1 µM (CHEK2): 77%
- remaining binding at 1 µM (ERK4): 99%
- remaining binding at 1 µM (CAMK1): 78%
- remaining binding at 1 µM [1]: 80%
- remaining binding at 1 µM (MST1): 92%
- remaining binding at 1 µM (BRAF): 55%
- remaining binding at 1 µM (MAP3K3): 86%
- inhibition at 0.1 µM (PIKFYVE; 100 nM, read-out: inhibition of PIKFYVE relative to control): 74%
- remaining binding at 0.1 µM (PIKFYVE; PIKFYVE, 100 nM, read-out: Percent Control): 26%
- remaining binding at 1 µM (PIKFYVE; kinase PIKFYVE (Entrez PIKFYVE), compound concentration 1000 nM, read-out: Percent Control): 55%
- remaining binding at 0.1 µM (SIK): 100%
- remaining binding at 1 µM (ADCK3): 97%
- remaining binding at 1 µM (KIT(V559D)): 82%
- inhibition at 10 µM (Muscarinic M3): 3%
- remaining binding at 1 µM (CSNK2A2): 69%
- % Inh. (Phorbol Ester): 8%
- remaining binding at 1 µM (IKK-alpha): 93%
- % Inh. [2]: 16%
- remaining binding at 1 µM (DCAMKL3): 100%
- remaining binding at 1 µM (EGFR(S752-I759del)): 97%
- remaining binding at 1 µM (LATS1): 62%
- remaining binding at 1 µM (ERBB4): 88%
- remaining binding at 0.1 µM (TAOK2): 92%
- remaining binding at 1 µM (MAP3K15): 93%
- remaining binding at 1 µM (AURKB): 57%
- remaining binding at 1 µM (ALK(L1196M)): 91%
- remaining binding at 0.1 µM (TEC): 100%
- remaining binding at 1 µM (EPHA8): 100%
